Where “and” joins values, the source holds several entries; their conditions need not be identical. Equal values may be shown once.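 Method: 48-hour compound exposure of cells in 96-well plates, five concentrations, linear interpolation of endpoints. At the GI50, growth is halved. The concentration for full growth arrest is given as TGI.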
Key:
Assay in all cases: growth of human tumour cells (NCI), 48 h
[1] = test system: SNB-75 CNS
[2] = test system: LOX IMVI melanoma
[3] = test system: COLO 205 colon
[4] = test system: CAKI-1 renal
[5] = test system: BT-549 breast
[6] = test system: SF-295 CNS
[7] = test system: 786-0 renal
[8] = test system: SK-OV-3 ovarian
[9] = test system: HS 578T breast
[10] = test system: SF-539 CNS

| SMILES | GI50 [1] | TGI [1] | GI50 [2] [µM] | TGI [2] | GI50 [3] [µM] | TGI [3] | GI50 [4] | TGI [4] | GI50 [5] [µM] | TGI [5] | GI50 [6] [µM] | TGI [6] | GI50 [7] [µM] | TGI [7] | GI50 [8] [µM] | TGI [8] | GI50 [9] [µM] | TGI [9] | GI50 [10] [µM] | TGI [10] |
| --- | --- | --- | --- | --- | --- | --- | --- | --- | --- | --- | --- | --- | --- | --- | --- | --- | --- | --- | --- | --- |
| O=C1C2=C(C(=O)c3cnccc31)C1C=CC2CC1 (stereo not drawn) | 1.34 µM | 2.73 µM | 0.773 | 2.19 µM | 2.32 | 4.62 µM | 3.57 µM | 9.33 µM | 5.86 | 10.3 µM | 5.36 | 12.4 µM | 1.95 | 3.37 µM | 5.58 | 10.4 µM | 2.77 | 6.6 µM | 2.27 | 4.5 µM |
| CN(C)c1nc(=NCc2ccco2)ss1 |  | 53.9 µM |  | 38.4 µM |  | > 68.5 µM |  | 49.1 µM |  | 38.4 µM |  | > 61.4 µM |  | 16.9 µM |  | > 87 µM |  | 78 µM |  | 19.8 µM |
| c1cc(-c2nnc(SSc3ncnc4nc[nH]c34)o2)ccn1 | 0.672 µM | > 100 µM | 0.297 | 17.3 µM | 3.3 | 23.8 µM | 0.472 µM | 5.17 µM | 9.47 | > 100 µM | 0.51 | 12.8 µM | 0.986 | > 100 µM | 0.45 | > 100 µM | 2.56 | > 100 µM | 1.84 | > 100 µM |
| O=c1cc(-c2ccc(O)cc2)oc2cc(O[C@@H]3O[C@H](CO)[C@@H](O)[C@H](O)[C@H]3O)cc(O)c12 |  | > 100 µM |  | > 100 µM |  | > 100 µM |  | 0.718 µM |  | > 100 µM |  | > 100 µM |  | > 100 µM |  | > 100 µM |  | > 100 µM |  | > 100 µM |
| CC1=C2C(=CC(C)(C)[C@@H]2O)C(=O)[C@](C)(O)C12CC2 | 0.0315 µM and < 0.0142 µM | 0.0723 µM and 0.0272 µM | 0.0125 | 0.0529 µM and 0.0384 µM | 0.0209 | 0.0989 µM and 0.0977 µM | 0.0129 µM and 0.0436 µM | 0.0697 µM and 0.594 µM | 0.0305 | 0.107 µM and 0.0788 µM | 0.026 | 0.11 µM and 0.0503 µM |  | 0.0532 µM and 0.067 µM | 0.0294 | 0.213 µM and 0.0676 µM | 0.0276 | 0.0855 µM and 0.0395 µM |  | 0.0548 µM and 0.038 µM |
| Cc1cc(C)c2c(n1)sc1c(N)ncnc12 | > 20.8 µM | > 25 µM | > 25 | > 25 µM | 17 | > 25 µM | 15.8 µM | > 25 µM | 11.3 | > 25 µM | > 25 | > 25 µM | > 25 | > 25 µM | > 25 | > 25 µM | 11.4 | > 25 µM | > 24.1 | > 25 µM |
| Cn1cccc1-c1cc(-c2ccccc2)[nH]c(=O)c1C#N | 45.1 µM | > 100 µM | > 100 | > 100 µM | > 100 | > 100 µM | > 100 µM | > 100 µM | > 100 | > 100 µM | > 100 | > 100 µM | > 100 | > 100 µM | > 100 | > 100 µM | > 100 | > 100 µM | > 100 | > 100 µM |

Source: PubChem BioAssay (NCI)
